≈ marks a conversion by molar mass, not a printed value.
What was measured:
[1] = test system: Mycobacterium tuberculosis; assay: Antitubercular activity against Mycobacterium tuberculosis H37Rv MTCC 200 assessed as growth inhibition measured within 10 days by BACTEC MGIT method; type: functional; conditions: H37Rv MTCC 200, 240 h
Bacillus subtilis [2] = assay: Antibacterial activity against Bacillus subtilis MTCC 619 assessed as growth inhibition after 24 hr by Kirby-Bauer disk diffusion method; type: functional; conditions: MTCC 619, 24 h
Staphylococcus aureus [3] = assay: Antibacterial activity against Staphylococcus aureus MTCC 96 assessed as growth inhibition after 24 hr by Kirby-Bauer disk diffusion method; type: functional; conditions: MTCC 96, 24 h
Pseudomonas aeruginosa [4] = assay: Antibacterial activity against Pseudomonas aeruginosa MTCC 741 assessed as growth inhibition after 24 hr by Kirby-Bauer disk diffusion method; type: functional; conditions: MTCC 741, 24 h
Escherichia coli [5] = assay: Antibacterial activity against Escherichia coli MTCC 739 assessed as growth inhibition after 24 hr by Kirby-Bauer disk diffusion method; type: functional; conditions: MTCC 739, 24 h
Bacillus subtilis [6] = assay: Antibacterial activity against Bacillus subtilis MTCC 619 assessed as diameter of growth inhibition zone after 24 hr by Kirby-Bauer disk diffusion method; type: functional
Staphylococcus aureus [7] = assay: Antibacterial activity against Staphylococcus aureus MTCC 96 assessed as diameter of growth inhibition zone after 24 hr by Kirby-Bauer disk diffusion method; type: functional
Pseudomonas aeruginosa [8] = assay: Antibacterial activity against Pseudomonas aeruginosa MTCC 741 assessed as diameter of growth inhibition zone after 24 hr by Kirby-Bauer disk diffusion method; type: functional
Escherichia coli [9] = assay: Antibacterial activity against Escherichia coli MTCC 739 assessed as diameter of growth inhibition zone after 24 hr by Kirby-Bauer disk diffusion method; type: functional
Staphylococcus aureus [10] = assay: Antibacterial activity against Staphylococcus aureus MTCC 96 assessed as diameter of growth inhibition zone at 100 ug/disk after 24 hr by Kirby-Bauer disk diffusion method; conditions: MTCC 96, 24 h, read-out: DIZ
Bacillus subtilis [11] = assay: microbe, parasite or virus in culture; conditions: MTCC 619, 24 h, read-out: DIZ
Description: Antibacterial activity against Bacillus subtilis MTCC 619 assessed as diameter of growth inhibition zone at 100 ug/disk after 24 hr by Kirby-Bauer disk diffusion method

Pseudomonas aeruginosa [12] = assay: microbe, parasite or virus in culture; conditions: MTCC 741, 24 h, read-out: DIZ
Description: Antibacterial activity against Pseudomonas aeruginosa MTCC 741 assessed as diameter of growth inhibition zone at 100 ug/disk after 24 hr by Kirby-Bauer disk diffusion method

Escherichia coli [13] = assay: microbe, parasite or virus in culture; conditions: MTCC 739, 24 h, read-out: DIZ
Description: Antibacterial activity against Escherichia coli MTCC 739 assessed as diameter of growth inhibition zone at 100 ug/disk after 24 hr by Kirby-Bauer disk diffusion method

SMILES | MIC99 [1] | MIC (Bacillus subtilis [2]) | MIC (Staphylococcus aureus [3]) | MIC (Pseudomonas aeruginosa [4]) | MIC (Escherichia coli [5]) | diameter of the inhibition zone (DIZ) (Bacillus subtilis [6]) | diameter of the inhibition zone (DIZ) (Staphylococcus aureus [7]) | diameter of the inhibition zone (DIZ) (Pseudomonas aeruginosa [8]) | diameter of the inhibition zone (DIZ) (Escherichia coli [9]) | zone of inhibition at 100 µg/disc (Staphylococcus aureus [10]) | zone of inhibition at 100 µg/disc (Bacillus subtilis [11]) | zone of inhibition at 100 µg/disc (Pseudomonas aeruginosa [12]) | zone of inhibition at 100 µg/disc (Escherichia coli [13])
O=C1S/C(=C\c2ccc(S(=O)(=O)Nc3nc(-c4ccccc4)cs3)cc2)C(=O)N1C(=O)c1ccc([N+](=O)[O-])cc1 | 500 µg/mL (≈ 844 µM) | 12.5 µg/mL (≈ 21.1 µM) | 25 µg/mL (≈ 42.2 µM) | 25 µg/mL (≈ 42.2 µM) | 50 µg/mL (≈ 84.4 µM) | 24 mm | 25 mm | 24 mm | 24 mm |  |  |  | 
Cc1cccc(C(=O)N2C(=O)S/C(=C\c3ccc(S(=O)(=O)Nc4nc(-c5ccccc5)cs4)cc3)C2=O)c1 | 125 µg/mL (≈ 223 µM) | 100 µg/mL (≈ 178 µM) | 100 µg/mL (≈ 178 µM) | 100 µg/mL (≈ 178 µM) | 100 µg/mL (≈ 178 µM) | 18 mm | 18 mm | 19 mm | 18 mm |  |  |  | 
NNC(=O)c1ccncc1 [ISONIAZID] | 0.2 µg/mL (≈ 1.46 µM) |  |  |  |  |  |  |  |  |  |  |  | 
O=C1S/C(=C\c2ccc(S(=O)(=O)Nc3nc(-c4ccccc4)cs3)cc2)C(=O)N1C(=O)c1cccc(Cl)c1 | 62.5 µg/mL (≈ 107 µM) | 12.5 µg/mL (≈ 21.5 µM) | 12.5 µg/mL (≈ 21.5 µM) | 25 µg/mL (≈ 42.9 µM) | 25 µg/mL (≈ 42.9 µM) | 25 mm | 26 mm | 24 mm | 24 mm |  |  |  | 
Cc1ccc(C(=O)N2C(=O)S/C(=C\c3ccc(S(=O)(=O)Nc4nc(-c5ccccc5)cs4)cc3)C2=O)cc1 | 250 µg/mL (≈ 445 µM) | 50 µg/mL (≈ 89 µM) | 50 µg/mL (≈ 89 µM) | 50 µg/mL (≈ 89 µM) | 50 µg/mL (≈ 89 µM) | 23 mm | 22 mm | 22 mm | 22 mm |  |  |  | 
O=C1S/C(=C\c2ccc(S(=O)(=O)Nc3nc(-c4ccccc4)cs3)cc2)C(=O)N1C(=O)c1cccc([N+](=O)[O-])c1 | 1000 µg/mL (≈ 1690 µM) | 25 µg/mL (≈ 42.2 µM) | 62.5 µg/mL (≈ 105 µM) | 62.5 µg/mL (≈ 105 µM) | 62.5 µg/mL (≈ 105 µM) | 24 mm | 21 mm | 22 mm | 22 mm |  |  |  | 
O=C1S/C(=C\c2ccc(S(=O)(=O)Nc3nc(-c4ccccc4)cs3)cc2)C(=O)N1C(=O)c1ccccc1 | 125 µg/mL (≈ 228 µM) | 25 µg/mL (≈ 45.7 µM) | 62.5 µg/mL (≈ 114 µM) | 62.5 µg/mL (≈ 114 µM) | 62.5 µg/mL (≈ 114 µM) | 24 mm | 21 mm | 22 mm | 22 mm |  |  |  | 
O=C1S/C(=C\c2ccc(S(=O)(=O)Nc3nc(-c4ccccc4)cs3)cc2)C(=O)N1C(=O)c1ccccc1Cl | 62.5 µg/mL (≈ 107 µM) | 6.25 µg/mL (≈ 10.7 µM) | 6.25 µg/mL (≈ 10.7 µM) | 12.5 µg/mL (≈ 21.5 µM) | 12.5 µg/mL (≈ 21.5 µM) | 26 mm | 24 mm | 24 mm | 25 mm |  |  |  | 
O=C1S/C(=C\c2ccc(S(=O)(=O)Nc3nc(-c4ccccc4)cs3)cc2)C(=O)N1C(=O)c1ccc(Cl)cc1 | 62.5 µg/mL (≈ 107 µM) | 6.25 µg/mL (≈ 10.7 µM) | 6.25 µg/mL (≈ 10.7 µM) | 12.5 µg/mL (≈ 21.5 µM) | 25 µg/mL (≈ 42.9 µM) | 26 mm | 24 mm | 22 mm | 23 mm |  |  |  | 
O=C(O)c1cn(C2CC2)c2cc(N3CCNCC3)c(F)cc2c1=O [CIPROFLOXACIN] |  | ≤ 1 µg/mL | ≤ 1 µg/mL | ≤ 1 µg/mL | ≤ 1 µg/mL |  |  |  |  | 32 mm | 33 mm | 31 mm | 30 mm
O=C1S/C(=C\c2ccc(S(=O)(=O)Nc3nc(-c4ccccc4)cs3)cc2)C(=O)N1C(=O)c1ccc([N+](=O)[O-])cc1[N+](=O)[O-] | 1000 µg/mL (≈ 1570 µM) | 6.25 µg/mL (≈ 9.8 µM) | 12.5 µg/mL (≈ 19.6 µM) | 100 µg/mL (≈ 157 µM) | 12.5 µg/mL (≈ 19.6 µM) | 22 mm | 23 mm | 22 mm | 24 mm |  |  |  | 

Reference: ChEMBL document CHEMBL3045794, “Antimicrobial activity of thiazolyl benzenesulfonamide-condensed 2,4-thiazolidinediones derivatives” (2013)
